Where two headings read alike, the source gives them in different places.
What was measured:
[1] = tested on: cell line ET (luc-ubi-neo/ET), human Huh7 hepatoma cell line; assay: Method A: cytotoxicity in ET replicon cells (CytoTox-1); format: cell-based; details: concentration decreasing cell viability by 50%, 72 hr
Procedure: The compounds were assayed to evaluate the antiviral activity and cytotoxicity of compounds in vitro using HCV RNA replicons. This assay used the cell line ET (luc-ubi-neo/ET), which is a human Huh7 hepatoma cell line that contains an HCV RNA replicon with a stable luciferase (Luc) reporter and three cell culture-adaptive mutations. […]
The ET cell line was grown in Dulbecco's modified essential media (DMEM), 10% fetal bovine serum (FBS), 1% penicillin-streptomycin (pen-strep), 1% glutamine, 250 μg/ml G418 in a 5% CO2 incubator at 37° C. All cell culture reagents were obtained from Mediatech (Manassas, Va.). Cells were trypsinized (1% trypsin:EDTA) and plated out at 5×10^3 cells/well in white 96-well assay plates (Costar) dedicated to cell number (cytotoxicity) or antiviral activity assessments. Drugs were added at six 3-fold concentrations each and the assay was run in DMEM, 5% FBS, 1% pen-strep, 1% glutamine. Human interferon alpha-2b (PBL Biolabs, New Brunswick, N.J.) was included in each run as a positive control compound. Cells were processed 72 hr post drug addition when the cells are still subconfluent. Antiviral activity was measured by analyzing replicon-derived luciferase activity using the Steady-Glo Luciferase Assay System (Promega, Madison, Wis.) according to manufacturer's instruction. The number of cells in each well was determined by CytoTox-1 reagent (Promega). […].

[2] = target: T1, A156T mutant of the HCV NS3/4A 1b protease enzyme (Hepatitis C virus genotype 1b, UniProt P26663, A1182T); assay: HCV Protease FRET Assay (IC50_APP), A156T mutant; format: biochemical
T1 construct: 10× stocks of NS3/4A protease enzyme from Bioenza (Mountain View, Calif.); purchased Bioenza (Mountain View, Calif.)

[3] = tested on: HCV RNA replicon in cell line ET (luc-ubi-neo/ET), human Huh7 hepatoma; assay: Method A: HCV RNA replicon antiviral assay (luciferase, ET cell line); format: cell-based, Hepatitis C virus; details: Hepatitis C virus, Huh-7
Outline: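 Six 3-fold dilutions of each drug were tested on subconfluent luc-ubi-neo/ET Huh7 replicon cells (5×10^3/well) for 72 hr at 37 °C. EC50 and EC90 came from luciferase read-out, IC50 from CytoTox-1 cell number, and […]; interferon alpha-2b was run each time as control.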

[4] = target: T2, wild type HCV NS3/4A 1b protease enzyme (Hepatitis C virus genotype 1b, UniProt P26663); assay: biochemical; format: biochemical; details: read-out: Inhibition, WT; WT enzyme, FRET assay
T2 construct: 10× stocks of NS3/4A protease enzyme from Bioenza (Mountain View, Calif.); purchased Bioenza (Mountain View, Calif.)

[5] = target: T3, D168A mutant of the HCV NS3/4A 1b protease enzyme (Hepatitis C virus genotype 1b, UniProt P26663, D1194A); assay: HCV Protease FRET Assay (IC50), D168A mutant; format: biochemical; details: read-out: Inhibition, HCV D168A; D168A enzyme, FRET assay
T3 construct: 10× stocks of NS3/4A protease enzyme from Bioenza (Mountain View, Calif.); purchased Bioenza (Mountain View, Calif.)

[6] = target: T1, A156T mutant of the HCV NS3/4A 1b protease enzyme; assay: HCV Protease FRET Assay (IC50), A156T mutant; format: biochemical; details: read-out: Inhibition, HCV A156T; A156T enzyme, FRET assay
Procedure: HCV Protease FRET Assay for Wild Type and Mutated NS3/4A 1b Enzymes (IC50)
The protocol is a modified FRET-based assay (v—02) from In Vitro Resistance Studies of HCV Serine Protease Inhibitors, 2004, JBC, vol. 279, No. 17, pp 17508-17514.
10× stocks of NS3/4A protease enzyme from Bioenza (Mountain View, Calif.) and 1.13× 5-FAM/QXL™ 520 FRET peptide substrate from Anaspec (San Jose, Calif.) were prepared in 50 mM HEPES, pH 7.8, 100 mM NaCl, 5 mM DTT and 20% glycerol. 5 μL of each enzyme were pre-incubated in a Corning (#3573) 384-well, black, non-treated microtiter plate (Corning, N.Y.) for 30 min at 25° C. with a 0.5 μL volume of 50% DMSO and serially diluted compounds prepared in 50% DMSO. Protease reactions were started with the addition of 45 μL of the FRET substrate and monitored for 120 minutes at λex487/λem514 through Quad^4 monochromoters in a Synergy^4 plate reader from BioTek (Winooski, Vt.). At the conclusion of each assay, progress curves from each well were examined for linear reaction kinetics and fit statistics (R^2, absolute sum of squares). Initial velocity (0 minutes to 30+ minutes) from each reaction was determined from the slope of a plot of relative fluorescence units vs time (minutes) and then plotted against inhibitor concentration to estimate IC50 from log[Inhibitor] vs Response, Variable Slope model in GraphPad Prism from GraphPad Software (San Diego, Calif.).
The compound numbers correspond to the compound numbers in Table 3. […] ;

[7] = target: T2, wild type HCV NS3/4A 1b protease enzyme; assay: HCV Protease FRET Assay (IC50_APP), wild type; format: biochemical; details: read-out: IC50_APP, WT; apparent IC50, wild type NS3/4A 1b
[8] = target: T3, D168A mutant of the HCV NS3/4A 1b protease enzyme; assay: HCV Protease FRET Assay (IC50_APP), D168A mutant; format: biochemical
[9] = apparent IC50, A156T mutant; read-out: IC50_APP, HCV A156T
[10] = Replicon, assay of Example 22, 72 hr, read-out: Inhibition, Replicon
[11] = assay described in Example 22, read-out: Replicon (IC50)
[12] = apparent IC50, D168A mutant; read-out: IC50_APP, HCV D168A

For `C=C[C@@H]1C[C@]1(NC(=O)[C@@H]1C[C@@H](Oc2cc(-c3ccccc3)nc3cc(OC)ccc23)CN1C(=O)[C@H](CN(C)C(=O)[C@H](Cl)c1ccccc1)NC(=O)OC(C)(C)C)C(=O)NS(=O)(=O)c1ccccc1` [Compound I-33, tert-butyl-(2S)-3-(2-chloro-N-methyl-2-phenylacetamido)-1-((2S,4R)-4-(7-methoxy-2-phenylquinolin-4-yloxy)-2-((1R,2S)-1-(phenylsulfonylcarbamoyl)-2-vinylcyclopropylcarbamoyl)pyrrolidin-1-yl)-1-oxopropan-2-ylcarbamate], the “Inhibition, Cytotoxicity” value [1] was “E (IC50≧10,000 nM)”, the IC50 [2, 9] was 1000 to 10000 nM and the IC90 ([3]; assay described in Example 22) was 10 to 100 nM. The IC50 [3, 10] was under 10 nM, the IC50 [3, 11] was under 10 nM and the IC50 [4] was under 10 nM. The IC50 [5] was 100 to 1000 nM, the IC50 [6] was 100 to 1000 nM and the IC50 [7] was under 10 nM. For the same compound, the IC50 [8, 12] was 1000 to 10000 nM.
In the case of `C=CC(=O)NC[C@H](NC(=O)OC(C)(C)C)C(=O)N1C[C@H](Oc2cc(-c3ccccc3)nc3cc(OC)ccc23)C[C@H]1C(=O)N[C@]1(C(=O)NS(=O)(=O)C2CC2)C[C@H]1C=C` [Compound I-35, tert-butyl-(S)-3-acrylamido-1-((2S,4R)-2-((1R,2S)-1-(cyclopropylsulfonylcarbamoyl)-2-vinylcyclopropylcarbamoyl)-4-(7-methoxy-2-phenylquinolin-4-yloxy)pyrrolidin-1-yl)-1-oxopropan-2-ylcarbamate], the “Inhibition, Cytotoxicity” value [1] is reported as “C (IC50>100 nM and ≦1000 nM)”, the IC50 [2, 9] is reported as 100 to 1000 nM and the IC90 ([3]; assay described in Example 22) is reported as 100 to 1000 nM. It also gave an IC50 [3, 10] of under 10 nM, an IC50 [3, 11] of 10 to 100 nM and an IC50 [4] of under 10 nM. The IC50 [5] was under 10 nM, the IC50 [6] was under 10 nM and the IC50 [7] was under 10 nM. It also gave an IC50 [8, 12] of 100 to 1000 nM.
For `C=C[C@@H]1C[C@]1(NC(=O)[C@@H]1C[C@@H](Oc2cc(-c3ccccc3)nc3cc(OC)ccc23)CN1C(=O)[C@H](CCN(C)C(=O)CCl)NC(=O)OC(C)(C)C)C(=O)NS(=O)(=O)c1ccccc1` [Compound I-9, (2S)-2-[[(1,1-dimethylethoxy)carbonyl]amino]-4-(chloroacetyl)methylamino-butanoyl-(4R)-4-[(7-methoxy-2-phenyl-4-quinolinyl)oxy]-L-prolyl-1-amino-2-ethenyl-N-(phenylsulfonyl)-(1R,2S)-cyclopropanecarboxamide], the “Inhibition, Cytotoxicity” value [1] was “C (IC50>100 nM and ≦1000 nM)”, the IC50 ([2]; read-out: IC50_APP, HCV A156T; apparent IC50, A156T mutant) was 10 to 100 nM and the IC90 ([3]; assay described in Example 22) was over 10000 nM. It also gave an IC50 [3, 10] of 10 to 100 nM, an IC50 [3, 11] of 10 to 100 nM and an IC50 [4] of under 10 nM. It also gave an IC50 [5] of under 10 nM, an IC50 [6] of under 10 nM and an IC50 [7] of under 10 nM. For the same compound, the IC50 ([8]; read-out: IC50_APP, HCV D168A; apparent IC50, D168A mutant) was 100 to 1000 nM.
In the case of `C=C[C@@H]1C[C@]1(NC(=O)[C@@H]1C[C@@H](Oc2cc(-c3ccccc3)nc3cc(OC)ccc23)CN1C(=O)[C@H](CNC(=O)C(C)Br)NC(=O)OC(C)(C)C)C(=O)NS(=O)(=O)c1ccccc1` (stereo partly drawn) [Compound I-22, tert-butyl(S)-3-(2-bromopropanamido)-1-((2S,4R)-4-(7-methoxy-2-phenylquinolin-4-yloxy)-2-((1R,2S)-1-(phenylsulfonylcarbamoyl)-2-vinylcyclopropylcarbamoyl)pyrrolidin-1-yl)-1-oxopropan-2-ylcarbamate], the “Inhibition, Cytotoxicity” value [1] is reported as “D (IC50>1000 nM and <10,000 nM)”, the IC50 [2, 9] is reported as 1000 to 10000 nM and the IC90 ([3]; assay described in Example 22) is reported as over 10000 nM. The IC50 [3, 10] was 100 to 1000 nM, the IC50 [3, 11] was 100 to 1000 nM and the IC50 [4] was under 10 nM. For the same compound, the IC50 [5] was 10 to 100 nM, the IC50 [6] was 10 to 100 nM and the IC50 [7] was under 10 nM. The IC50 [8, 12] was 1000 to 10000 nM.
`C=CC(=O)NCC(=O)N1C[C@H](Oc2cc(-c3ccccc3)nc3cc(OC)ccc23)C[C@H]1C(=O)N[C@]1(C(=O)NS(=O)(=O)C2CC2)C[C@H]1C=C` [Compound I-39, (2S,4R)-1-(2-acrylamidoacetyl)-N-((1R,2S)-1-(cyclopropylsulfonylcarbamoyl)-2-vinylcyclopropyl)-4-(7-methoxy-2-phenylquinolin-4-yloxy)pyrrolidine-2-carboxamide] was tested, and the “Inhibition, Cytotoxicity” value [1] was “C (IC50>100 nM and ≦1000 nM)”, the IC50 [2, 9] was 10 to 100 nM and the IC90 ([3]; assay described in Example 22) was 100 to 1000 nM. For the same compound, the IC50 [3, 10] was 10 to 100 nM, the IC50 [3, 11] was 10 to 100 nM and the IC50 [4] was under 10 nM. The IC50 [5] was under 10 nM, the IC50 [6] was under 10 nM and the IC50 [7] was under 10 nM. The IC50 [8, 12] was 100 to 1000 nM.
For `C=CC(=O)N(C)C[C@H](NC(=O)OC(C)(C)C)C(=O)N1C[C@H](Oc2cc(-c3ccccc3)nc3cc(OC)ccc23)C[C@H]1C(=O)N[C@]1(C(=O)NS(=O)(=O)c2ccccc2)C[C@H]1C=C` [Compound I-28, tert-butyl-(S)-1-((2S,4R)-4-(7-methoxy-2-phenylquinolin-4-yloxy)-2-((1R,2S)-1-(phenylsulfonylcarbamoyl)-2-vinylcyclopropylcarbamoyl)pyrrolidin-1-yl)-3-(N-methylacrylamido)-1-oxopropan-2-ylcarbamate], the “Inhibition, Cytotoxicity” value [1] was “D (IC50>1000 nM and <10,000 nM)”, the IC50 [2, 9] was 1000 to 10000 nM and the IC90 ([3]; assay described in Example 22) was 100 to 1000 nM. For the same compound, the IC50 [3, 10] was under 10 nM, the IC50 [3, 11] was 10 to 100 nM and the IC50 [4] was under 10 nM. The IC50 [5] was 100 to 1000 nM, the IC50 [6] was 10 to 100 nM and the IC50 [7] was under 10 nM. The IC50 [8, 12] was 1000 to 10000 nM.
`C=CC(=O)N[C@H](C)C(=O)N1C[C@H](Oc2cc(-c3ccccc3)nc3cc(OC)ccc23)C[C@H]1C(=O)N[C@]1(C(=O)NS(=O)(=O)c2ccccc2)C[C@H]1C=C` [Compound I-46, (2S,4R)-1-((R)-2-acrylamidopropanoyl)-4-(7-methoxy-2-phenylquinolin-4-yloxy)-N-((1R,2S)-1-(phenylsulfonylcarbamoyl)-2-vinylcyclopropyl)pyrrolidine-2-carboxamide] was tested, and the “Inhibition, Cytotoxicity” value [1] was “C (IC50>100 nM and ≦1000 nM)”, the IC50 [2, 9] was 10 to 100 nM and the IC90 ([3]; assay described in Example 22) was under 10 nM. For the same compound, the IC50 [3, 10] was under 10 nM, the IC50 [3, 11] was under 10 nM and the IC50 [4] was under 10 nM. For the same compound, the IC50 [5] was under 10 nM, the IC50 [6] was under 10 nM and the IC50 [7] was under 10 nM. It also gave an IC50 [8, 12] of 100 to 1000 nM.

From patent publication US8309685B2 (Celgene Avilomics Research, Inc., priority 2007, dated 2012)
